Reference: article PMC7253369, “Cellular and Structural Basis of Synthesis of the Unique Intermediate Dehydro-F420-0 in Mycobacteria” (mSystems, 2020)

What was measured:
FbiA [1] = molecular target: T1, FbiA (Mycolicibacterium smegmatis, UniProt A0QTG2); assay: X-ray crystal structure, crystal soaking; co-purification with LC-MS; type: binding; details: pH 8.5, 20% glycerol; no metal seen; active site of Mol. B; carbonyl part poorly resolved
T1 construct: expressed in M. smegmatis mc^2155 (homologous host); homodimer
T1 sequence (A0QTG2 1-327): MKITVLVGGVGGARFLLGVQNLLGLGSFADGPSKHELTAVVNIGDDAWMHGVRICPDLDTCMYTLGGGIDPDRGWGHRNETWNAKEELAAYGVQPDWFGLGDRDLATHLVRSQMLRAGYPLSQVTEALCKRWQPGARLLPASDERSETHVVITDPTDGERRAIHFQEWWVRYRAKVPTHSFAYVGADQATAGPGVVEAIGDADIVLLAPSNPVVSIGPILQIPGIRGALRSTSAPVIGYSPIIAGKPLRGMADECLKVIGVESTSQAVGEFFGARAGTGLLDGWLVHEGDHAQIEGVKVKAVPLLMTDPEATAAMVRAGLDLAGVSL

FbiA [2] = molecular target: T1, FbiA; assay: X-ray crystal structure, crystal soaking; type: binding; details: pH 8.5, 20% glycerol
[3] = molecular target: the molecule itself; assay: SEC-MALS; Superdex S200 Increase 10/300 in 200 mM NaCl, 50 mM Tris pH 7.9; purified FbiA; MALS detection (Wyatt)

Molecule: C=C(OP(=O)(O)OC[C@@H](O)[C@@H](O)[C@@H](O)Cn1c2nc(=O)[nH]c(=O)c-2cc2ccc(O)cc21)C(=O)O [DH-F420-0]
- X-ray crystal structure, crystal soaking; co-purification with LC-MS (FbiA [1]): FbiA plus DH-F420-0, 6UW7

Molecule: O=c1nc2n(C[C@H](O)[C@H](O)[C@H](O)CO)c3cc(O)ccc3cc-2c(=O)[nH]1 [Fo]
- X-ray crystal structure, crystal soaking (FbiA [2]; Fo alone (no metal seen) and with GDP and Ca2+, active site of Mol. B): FbiA plus Fo, 6UW1; FbiA plus GDP, 6UW3; FbiA plus GDP plus Fo, 6UW5

Molecule: Nc1nc2c(ncn2[C@@H]2O[C@H](COP(=O)(O)OP(=O)(O)O)[C@@H](O)[C@H]2O)c(=O)[nH]1 [GDP]
- X-ray crystal structure, crystal soaking (FbiA [2]; GDP alone and with Fo, active-site Ca2+ in Mol. B, in place of unstable EPPG): FbiA plus GDP, 6UW3; FbiA plus GDP plus Fo, 6UW5

B1: FbiA from M. smegmatis (enzyme)
chain: T1 sequence (A0QTG2 1-327)
notes: FbiA (phosphotransferase that makes dehydro-F420-0; homologous to CofD) from Mycobacterium smegmatis, gene MSMEG_1830; Copurifies with its product DH-F420-0 and some mature F420 (small molecules); also called MSMEG_1830; Mol. A; source: M. smegmatis mc2155, pMyNT vector, acetamide-induced, purified (Ni2+ agarose, SEC, TEV cleavage); not shown: His6, N-terminal, cleaved
- stoichiometry N [3]: 2
